The EC50 is the concentration needed to bring the measured effect to its halfway point. A higher EC50 goes with lower potency in that assay.

Each structure is given as a SMILES string.

The target of this assay is T1, human apelin receptor (Homo sapiens, UniProt P35414).
T1 construct: host or cells: CHO cells
T1 sequence (P35414 1-380): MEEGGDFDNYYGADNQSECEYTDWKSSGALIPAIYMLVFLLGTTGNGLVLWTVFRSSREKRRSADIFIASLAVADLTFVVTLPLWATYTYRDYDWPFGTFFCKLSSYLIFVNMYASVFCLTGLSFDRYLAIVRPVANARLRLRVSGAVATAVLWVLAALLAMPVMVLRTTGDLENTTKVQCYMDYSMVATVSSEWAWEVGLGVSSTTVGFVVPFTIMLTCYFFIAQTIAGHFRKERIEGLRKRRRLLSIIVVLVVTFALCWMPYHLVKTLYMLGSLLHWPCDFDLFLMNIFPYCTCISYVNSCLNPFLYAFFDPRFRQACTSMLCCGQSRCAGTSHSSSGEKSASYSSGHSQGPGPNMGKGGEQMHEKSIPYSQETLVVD
As to the kind of experiment: Measurement of apelin receptor agonist activity (cell-based assay determining the amount of intracellular cAMP). As to conditions: CHO cells stably expressing the human apelin receptor, Forskolin 10 μM, 30 minutes, 100% efficacy = [Pyr1]-apelin-13 0.300 μM, concentration giving 50% efficacy. The method, then: Measurement of Apelin Receptor Agonist Activity
The apelin receptor agonist activity of the compound represented by formula (I) or (II) of the present invention was measured by cell-based assay for determining the amount of intracellular cAMP.
CHO cells (DiscoveRx Corp.) stably expressing the human apelin receptor were inoculated to wells of a microtiter plate and cultured overnight at 37° C. under conditions of 5% CO2.
Each test compound and Forskolin were added to the wells at the same time. Specifically, the test compound dissolved in DMSO was diluted with a Forskolin-containing buffer [DMEM/F-12, HEPES, no phenol red (#11039, GIBCO)] to prepare a mixed solution containing the test compound at a final concentration of […] (common ratio: 3, serial dilution: 11), Forskolin at a final concentration of 10 μM, and DMSO at a final concentration of 0.3% v/v, which was then added to the wells (N═4).
After 30 minutes, the cells were lysed, and HitHunter cAMP XS+ Assay #90-0075L (DiscoveRx Corp.) was added to the cell lysate. The mixture was left overnight, and the resulting chemiluminescence signals were then detected using Analyst GT (Molecular Devices LLC.) to determine the amount of cAMP.
The amount of cAMP determined by the addition of a positive control [Pyr1]-apelin-13 (final concentration: 0.300 μM) and Forskolin (final concentration: 10 μM) at the same time was used as an index to define 100% efficacy. The amount of cAMP determined by the addition of Forskolin (final concentration: 10 μM) alone was used as an index to define 0% efficacy.
A dose response curve was prepared from the final concentration of the test compound and the determined amount of cAMP using Sigmaplot 12.0.
For the molecule `COc1ccnc(OC)c1-n1c(SCC(=O)O)nnc1-c1ccc(C)o1` [Example 34, {[4-(2,4-Dimethoxypyridin-3-yl)-5-(5-methylfuran-2-yl)-4H-1,2,4-triazol-3-yl]sulfanyl}acetic acid], the EC50 turned out to be 152 nM.

Molecule `CCOC(=O)CSc1nnc(-c2ccc(C)o2)n1-c1c(OC)cccc1OC` [Example 4, Ethyl {[4-(2,6-dimethoxyphenyl)-5-(5-methylfuran-2-yl)-4H-1,2,4-triazol-3-yl]sulfanyl}acetate] gave an EC50 of 122 nM.

Molecule `COc1cccc(OC)c1-n1c(/C=C/C(=O)O)nnc1-c1ccc(C)o1` [Example 64, Ammonium (2E)-3-[4-(2,6-dimethoxyphenyl)-5-(5-methylfuran-2-yl)-4H-1,2,4-triazol-3-yl]prop-2-enoate] returned an EC50 of 52 nM.

Regarding `COc1cccc(OC)c1-n1c(/C=C/c2cc(=O)n3cc(C)ccc3n2)nnc1-c1ccc(C)o1` [Example 52, 2-{(E)-2-[4-(2,6-Dimethoxyphenyl)-5-(5-methylfuran-2-yl)-4H-1,2,4-triazol-3-yl]ethenyl}-7-methyl-4H-pyrido[1,2-a]pyrimidin-4-one], the EC50 is 217 nM.

`COc1cccc(OC)c1-n1c(SCC(=O)O)nnc1-c1cc(C)c(C)o1` [Example 63, {[4-(2,6-Dimethoxyphenyl)-5-(4,5-dimethylfuran-2-yl)-4H-1,2,4-triazol-3-yl]sulfanyl}acetic acid] registered an EC50 of 716 nM. Against the preceding molecule, the EC50 is about 3.3-fold higher.

As to `COc1cccc(OC)c1-n1c(SCc2nnn[nH]2)nnc1-c1ccc(C)o1` [Example 74, 5-({[4-(2,6-Dimethoxyphenyl)-5-(5-methylfuran-2-yl)-4H-1,2,4-triazol-3-yl]sulfanyl}methyl)-1H-tetrazole], the EC50 worked out at 98 nM.

Molecule `COc1cccc(OC)c1-n1c(CCC(C)=O)nnc1-c1ccc(C)o1` [Example 24, 4-[4-(2,6-Dimethoxyphenyl)-5-(5-methylfuran-2-yl)-4H-1,2,4-triazol-3-yl]butan-2-one] had an EC50 of 751 nM.

Take `COc1cccc(OC)c1-n1c(SCc2ccc(C(=O)O)cc2)nnc1-c1ccc(C)o1` [Example 82, 4-({[4-(2,6-Dimethoxyphenyl)-5-(5-methylfuran-2-yl)-4H-1,2,4-triazol-3-yl]sulfanyl}methyl)benzoic acid]: the EC50 stood at 5460 nM.

`COc1cccc(OC)c1-n1c(SCc2cccc(C(N)=O)c2)nnc1-c1ccc(C)o1` [Example 106, 3-({[4-(2,6-Dimethoxyphenyl)-5-(5-methylfuran-2-yl)-4H-1,2,4-triazol-3-yl]sulfanyl}methyl)benzamide] came in with an EC50 of 793 nM.

With `COc1cccc(OC)c1-n1c(SC(C)(C)C(=O)O)nnc1-c1ccc(C)o1` [Example 36, 2-{[4-(2,6-Dimethoxyphenyl)-5-(5-methylfuran-2-yl)-4H-1,2,4-triazol-3-yl]sulfanyl}-2-methylpropanoic acid], the EC50 came out at 108 nM.

Turning to `COc1cccc(OC)c1-n1c(-c2cccc(C(=O)O)c2)nnc1-c1ccc(C)o1` [Example 46, 3-[4-(2,6-Dimethoxyphenyl)-5-(5-methylfuran-2-yl)-4H-1,2,4-triazol-3-yl]benzoic acid], the EC50 amounted to 96 nM.

In turn, `COc1cccc(OC)c1-n1c(CO)nnc1-c1ccc(C)o1` [Example 7, [4-(2,6-Dimethoxyphenyl)-5-(5-methylfuran-2-yl)-4H-1,2,4-triazol-3-yl]methanol] showed an EC50 of 815 nM.

Take `COC(=O)C(Sc1nnc(-c2ccc(C)o2)n1-c1c(OC)cccc1OC)c1cccc2ccccc12` (stereo not shown) [Example 37, Methyl {[4-(2,6-dimethoxyphenyl)-5-(5-methylfuran-2-yl)-4H-1,2,4-triazol-3-yl]sulfanyl}(naphthalen-1-yl)acetate]: it took 825 nM to reach a half-maximal effect (EC50).

`COc1cccc(OC)c1-n1c(SC(C(=O)O)c2ccccc2)nnc1-c1ccc(C)o1` (stereo not shown) [Example 35, {[4-(2,6-Dimethoxyphenyl)-5-(5-methylfuran-2-yl)-4H-1,2,4-triazol-3-yl]sulfanyl}(phenyl)acetic acid] displayed a concentration giving a half-maximal response (EC50) of 10 nM.

In turn, `COc1cccc(OC)c1-n1c(SCC2=NOC(=O)C2)nnc1-c1ccc(C)o1` [Example 103, 3-({[4-(2,6-Dimethoxyphenyl)-5-(5-methylfuran-2-yl)-4H-1,2,4-triazol-3-yl]sulfanyl}methyl)-1,2-oxazol-5(4H)-one] yielded an EC50 of 46 nM.

As to `COc1cccc(OC)c1-n1c(/C=C/C(=O)O)nnc1-c1ccc(C)o1` [Example 9, (2E)-3-[4-(2,6-Dimethoxyphenyl)-5-(5-methylfuran-2-yl)-4H-1,2,4-triazol-3-yl]prop-2-enoic acid], the EC50 is 18 nM.

In turn, `COc1cccc(OC)c1-n1c(/C=C\C(=O)O)nnc1-c1ccc(C)o1` [Example 56, (2Z)-3-[4-(2,6-Dimethoxyphenyl)-5-(5-methylfuran-2-yl)-4H-1,2,4-triazol-3-yl]prop-2-enoic acid] yielded an EC50 of 48 nM.

`COc1cccc(OC)c1-n1c(SC(C(=O)O)c2cccc3ccccc23)nnc1-c1ccc(C)o1` (stereo not shown) [Example 38, {[4-(2,6-Dimethoxyphenyl)-5-(5-methylfuran-2-yl)-4H-1,2,4-triazol-3-yl]sulfanyl}(naphthalen-1-yl)acetic acid] registered an EC50 of 9 nM.

On to `COc1cccc(OC)c1-n1c(SC)nnc1-c1ccc(C)o1` [Example 85, 4-(2,6-Dimethoxyphenyl)-3-(5-methylfuran-2-yl)-5-(methylsulfanyl)-4H-1,2,4-triazole], for which the response was half-maximal at 253 nM (EC50).

The molecule `COc1cccc(OC)c1-n1c(SCc2cc(=O)[nH][nH]2)nnc1-c1ccc(C)o1` [Example 104, 5-({[4-(2,6-Dimethoxyphenyl)-5-(5-methylfuran-2-yl)-4H-1,2,4-triazol-3-yl]sulfanyl}methyl)-1,2-dihydro-3H-pyrazol-3-one] yielded an EC50 of 48 nM.

The molecule `COc1cccc(OC)c1-n1c(-c2ccccc2)nnc1-c1ccc(C)o1` [Example 57, 4-(2,6-Dimethoxyphenyl)-3-(5-methylfuran-2-yl)-5-phenyl-4H-1,2,4-triazole] had an EC50 of 1210 nM.

`COc1cccc(OC)c1-n1c(S)nnc1-c1ccc(C)o1` [Example 1, 4-(2,6-Dimethoxyphenyl)-5-(5-methylfuran-2-yl)-4H-1,2,4-triazole-3-thiol] came in with an EC50 of 31 nM.

With `COc1cccc(OC)c1-n1c(SCc2ccccc2)nnc1-c1ccc(C)o1` [Example 40, 3-(Benzylsulfanyl)-4-(2,6-dimethoxyphenyl)-5-(5-methylfuran-2-yl)-4H-1,2,4-triazole], it took 1110 nM to reach a half-maximal effect (EC50).

`COc1cccc(OC)c1-n1cnnc1-c1ccc(C)o1` [Example 6, 4-(2,6-Dimethoxyphenyl)-3-(5-methylfuran-2-yl)-4H-1,2,4-triazole]: the EC50 came out at 703 nM.

In turn, `COc1cccc(OC)c1-n1c(SCC(=O)O)nnc1C1CCCC1` [Example 33, {[5-Cyclopentyl-4-(2,6-dimethoxyphenyl)-4H-1,2,4-triazol-3-yl]sulfanyl}acetic acid] registered a 50% effective concentration (EC50) of 2440 nM.

In turn, `COC(=O)c1cccc(CSc2nnc(-c3ccc(C)o3)n2-c2c(OC)cccc2OC)c1` [Example 79, Methyl 3-({[4-(2,6-dimethoxyphenyl)-5-(5-methylfuran-2-yl)-4H-1,2,4-triazol-3-yl]sulfanyl}methyl)benzoate] gave an EC50 of 208 nM.

For the molecule `COc1cccc(OC)c1-n1c(CNS(C)(=O)=O)nnc1-c1ccc(C)o1` [Example 71, N-{[4-(2,6-Dimethoxyphenyl)-5-(5-methylfuran-2-yl)-4H-1,2,4-triazol-3-yl]methyl}methanesulfonamide], the response was half-maximal at 1070 nM (EC50).

For `COc1cccc(OC)c1-n1c(CCC(C)O)nnc1-c1ccc(C)o1` (stereo not shown) [Example 25, 4-[4-(2,6-Dimethoxyphenyl)-5-(5-methylfuran-2-yl)-4H-1,2,4-triazol-3-yl]butan-2-ol], the EC50 turned out to be 1720 nM.

For the molecule `COc1cccc(OC)c1-n1c(Br)nnc1-c1ccc(C)o1` [Example 44, 3-Bromo-4-(2,6-dimethoxyphenyl)-5-(5-methylfuran-2-yl)-4H-1,2,4-triazole], the EC50 came to 1210 nM.

In the case of `COc1cccc(OC)c1-n1c(SCC(=O)O)nnc1-c1ccc(Br)o1` [Example 26, {[5-(5-Bromofuran-2-yl)-4-(2,6-dimethoxyphenyl)-4H-1,2,4-triazol-3-yl]sulfanyl}acetic acid], it took 57 nM to reach a half-maximal effect (EC50).

`COc1cccc(OC)c1-n1c(CN(C(=O)c2ccc(C)cc2)C(=O)c2ccc(C)cc2)nnc1-c1ccc(C)o1` [Example 72, N-{[4-(2,6-Dimethoxyphenyl)-5-(5-methylfuran-2-yl)-4H-1,2,4-triazol-3-yl]methyl}-4-methyl-N-(4-methylbenzoyl)benzamide] had an EC50 of 95 nM.
